Reference: patent US20150141478A1, “SERIES OF DRUGS USING PHOTOFRIN TO CATALYZE DECOMPOSITION OF HYDROGEN PEROXIDE” (Wuxi Zhaozhen Radiation Technology Co., Ltd., priority 2012, published 2015)

Tests used:
[1] = Suppression of the decomposition of H2O2 catalysed by haematoporphyrin and .OH, using .OH scavengers; settings: 1.5% H2O2, 20% DMSO, 15% ethanol, 5% mannitol
Method: (4) 15 uM Haematoporphyrin derivative (HPD) was added, or 15 uM acidified porphyrin (Protoporphyrin IX, PpIX) was added.
(5) The vacuum bottles were irradiated with 10 MeV X-ray for about 1 min, dose of 5Gy, to start the decomposition reaction of H2O2. The reaction was terminated by stopping irradiation.

[2] = tested on: plaques in thoracic aorta; settings: 5-ALA 80 mg/kg i.p., then i.v. substrate (carbamide peroxide), 5Gy once, 7th day after therapy
Method: (1) Male New Zealand rabbits, bodyweight 3-4 kg, were fed with diet containing 1% cholesterol and pork fat, raised for 11 weeks, until atherosclerotic plaques occurred at vessels of eye ground at both sides and artery.
(2) The rabbits were anesthetized with ketamine and thiopental sodium.
(3) Target regions of plaques at artery to be treated were determined by total body CT plain scanning and CTA enhancing.
(4) Target regions of plaques at artery to be treated were sketched by a therapy planning system, to formulate a therapeutical plan suitable for RCDT, using GTV dose of up to 5.0Gy, irradiated once. Normal feeding was restored during the procedure.
(5) It was 2 h before the irradiation that 5-ALA (80 mg/kg in saline 5 ml) was intraperitoneally injected, carbamide peroxide (injection containing H2O2, 80 mg/kg) in 5 ml of saline was slowly injected via ear vein immediately before the irradiation, and the therapeutical plan was carried out immediately after the injection of carbamide peroxide.
(6) It was 5-7 days after irradiation the CTA was reexamined, and the situations of elimination of vascular plaques were recorded.
The plaques are used as target regions, positioned, and radiotherapy plan is formulated. It is 1.5 h after intraperitoneal injection of 5-ALA (80 mg/kg of body weight) that a substrate is intravenously dripped, the vascular plaques are irradiated with 5Gy once. […]

[3] = Decomposition of H2O2 catalysed by photofrin alone under weak alkali, 1O2 measured by DMA fluorescence; settings: 15 uM, H2O2 lower than or equal to 0.15%, 25° C., 8 h, no activation
Method: (1) 10 ml vacuum bottles were used, and the vacuum bottles were totally sealed with Kodak photographic film light protecting paper.
(2) H2O2 solutions (in DMF: H2O=1:5) with different concentrations were added to the sealed vacuum bottles.
(3) 5 uM 9,10-dimethylanthracene (DMA) was added. DMA was a kind of ^1O2 specific indicator (probe), DMA had intensive fluorescence property, after binding to ^1O2, endorperoxide without fluorescence property was formed, so that the amount of the generated ^1O2 is in inverse proportion with the content of DMA.
(4) 15 uM Haematoporphyrin derivative was added, and reacted at 25° C. for 8 h.

Compound: CCO [ethanol]
- inhibition of 1O2 yield [1]: 43.0%

Compound: C[S+](C)[O-] [DMSO]
- inhibition of 1O2 yield [1]: 75.1%

Compound: OC[C@@H](O)[C@@H](O)[C@H](O)[C@H](O)CO [mannitol]
- inhibition of 1O2 yield [1]: 17.7%

Compound: NCC(=O)CCC(=O)O [5-ALA]
- plaques in thoracic aorta by CTA visualization and MR [2]: completely disappeared

Compound: Haematoporphyrin derivative
- catalysis of the decomposition reaction of H2O2 to generate 1O2 [3]: cannot be catalyzed
